pIC50, pKi: −log10 of the molar value. Active and inactive are the calls of the source. The calls are words filed in the database; no cut-off is given here.

The target in assay [1] is T1, Tyrosine-protein phosphatase non-receptor type 5 (Homo sapiens, UniProt P54829).
T1 sequence (P54829 whole entry): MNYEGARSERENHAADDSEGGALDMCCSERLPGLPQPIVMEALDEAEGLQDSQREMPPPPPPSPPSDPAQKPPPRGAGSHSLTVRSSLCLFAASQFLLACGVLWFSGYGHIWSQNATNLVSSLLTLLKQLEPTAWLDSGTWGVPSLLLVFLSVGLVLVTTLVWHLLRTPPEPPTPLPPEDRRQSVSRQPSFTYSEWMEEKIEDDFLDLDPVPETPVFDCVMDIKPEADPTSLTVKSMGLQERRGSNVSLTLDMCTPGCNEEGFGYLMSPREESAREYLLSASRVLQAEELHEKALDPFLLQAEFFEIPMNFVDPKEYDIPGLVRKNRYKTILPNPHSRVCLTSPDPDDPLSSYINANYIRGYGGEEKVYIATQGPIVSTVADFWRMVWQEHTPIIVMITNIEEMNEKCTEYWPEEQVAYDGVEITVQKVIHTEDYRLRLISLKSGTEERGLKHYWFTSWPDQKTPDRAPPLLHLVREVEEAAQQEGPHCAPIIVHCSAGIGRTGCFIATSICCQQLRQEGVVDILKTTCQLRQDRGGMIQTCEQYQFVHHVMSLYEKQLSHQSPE
The assay can be described thus: (§1) Inhibition of N-terminal His-tagged STEP catalytic domain (unknown origin) expressed in Escherichia coli BL21 (DE3) cells using p-nitrophenyl phosphate as substrate.

Assay [2] has as its target T2, Protein phosphatase 1B (Homo sapiens) (UniProt O75688).
T2 sequence (whole entry): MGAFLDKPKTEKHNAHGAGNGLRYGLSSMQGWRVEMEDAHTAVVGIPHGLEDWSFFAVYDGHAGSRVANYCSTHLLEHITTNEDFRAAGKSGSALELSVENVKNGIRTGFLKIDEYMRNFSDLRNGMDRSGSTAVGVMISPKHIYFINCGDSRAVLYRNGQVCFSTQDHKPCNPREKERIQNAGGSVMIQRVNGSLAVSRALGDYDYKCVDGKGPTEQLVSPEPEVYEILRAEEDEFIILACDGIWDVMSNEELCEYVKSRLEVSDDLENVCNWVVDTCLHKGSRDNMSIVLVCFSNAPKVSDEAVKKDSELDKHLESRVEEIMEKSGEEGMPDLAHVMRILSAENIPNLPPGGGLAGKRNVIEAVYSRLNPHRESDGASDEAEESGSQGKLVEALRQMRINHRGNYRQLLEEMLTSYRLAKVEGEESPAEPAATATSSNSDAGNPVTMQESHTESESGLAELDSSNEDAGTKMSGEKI
In words: Time-dependent irreversible inhibition of N-terminal His-tagged PPM1B (unknown origin) expressed in Escherichia coli BL21 (DE3) cells at 80 uM preincubated with enzyme followed by p-nitrophenyl phosphate substrate addition.

Assay [3] addresses T3, Tyrosine-protein phosphatase non-receptor type 5 (Homo sapiens) (UniProt P54829).
T3 sequence (whole entry): T1 sequence (P54829 whole entry)
Description: Time-dependent irreversible inhibition of N-terminal His-tagged STEP catalytic domain (unknown origin) expressed in Escherichia coli BL21 (DE3) cells at 100 uM preincubated with enzyme followed by p-nitrophenyl phosphate substrate addition

The target of assay [4] is T4, Protein phosphatase 1G (Homo sapiens) (UniProt O15355).
T4 sequence (whole entry): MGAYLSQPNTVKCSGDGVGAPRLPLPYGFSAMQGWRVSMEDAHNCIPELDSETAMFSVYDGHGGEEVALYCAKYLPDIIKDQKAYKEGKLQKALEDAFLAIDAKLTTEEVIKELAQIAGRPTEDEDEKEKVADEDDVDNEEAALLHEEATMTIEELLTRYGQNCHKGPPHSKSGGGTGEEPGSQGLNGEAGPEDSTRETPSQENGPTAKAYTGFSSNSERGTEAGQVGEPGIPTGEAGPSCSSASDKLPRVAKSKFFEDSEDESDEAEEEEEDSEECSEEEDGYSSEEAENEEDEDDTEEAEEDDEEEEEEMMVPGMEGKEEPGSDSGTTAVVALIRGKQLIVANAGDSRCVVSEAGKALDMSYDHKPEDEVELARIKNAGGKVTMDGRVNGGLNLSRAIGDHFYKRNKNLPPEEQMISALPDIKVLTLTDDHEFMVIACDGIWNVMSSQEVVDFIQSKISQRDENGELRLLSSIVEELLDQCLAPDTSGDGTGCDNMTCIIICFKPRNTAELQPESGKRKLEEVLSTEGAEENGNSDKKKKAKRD
The assay can be described thus: Time-dependent irreversible inhibition of N-terminal His-tagged PPM1G (unknown origin) expressed in Escherichia coli BL21 (DE3) cells at 80 uM preincubated with enzyme followed by p-nitrophenyl phosphate substrate addition.

The next assay concerns Bacteria. In words: Time-dependent irreversible inhibition of N-terminal His-tagged bacterial YOPH expressed in Escherichia coli BL21 (DE3) cells preincubated with enzyme followed by p-nitrophenyl phosphate substrate addition.
The target in assay [5] is T1, Tyrosine-protein phosphatase non-receptor type 5. In words: (§2) Time-dependent irreversible inhibition of N-terminal His-tagged STEP catalytic domain (unknown origin) expressed in Escherichia coli BL21 (DE3) cells preincubated with enzyme followed by p-nitrophenyl phosphate substrate addition.
Assay [6] has as its target T3, Tyrosine-protein phosphatase non-receptor type 5 (Homo sapiens). Described as §2.
The target of assay [7] is T5, Tyrosine-protein phosphatase non-receptor type 9 (Homo sapiens) (UniProt P43378).
T5 sequence (whole entry): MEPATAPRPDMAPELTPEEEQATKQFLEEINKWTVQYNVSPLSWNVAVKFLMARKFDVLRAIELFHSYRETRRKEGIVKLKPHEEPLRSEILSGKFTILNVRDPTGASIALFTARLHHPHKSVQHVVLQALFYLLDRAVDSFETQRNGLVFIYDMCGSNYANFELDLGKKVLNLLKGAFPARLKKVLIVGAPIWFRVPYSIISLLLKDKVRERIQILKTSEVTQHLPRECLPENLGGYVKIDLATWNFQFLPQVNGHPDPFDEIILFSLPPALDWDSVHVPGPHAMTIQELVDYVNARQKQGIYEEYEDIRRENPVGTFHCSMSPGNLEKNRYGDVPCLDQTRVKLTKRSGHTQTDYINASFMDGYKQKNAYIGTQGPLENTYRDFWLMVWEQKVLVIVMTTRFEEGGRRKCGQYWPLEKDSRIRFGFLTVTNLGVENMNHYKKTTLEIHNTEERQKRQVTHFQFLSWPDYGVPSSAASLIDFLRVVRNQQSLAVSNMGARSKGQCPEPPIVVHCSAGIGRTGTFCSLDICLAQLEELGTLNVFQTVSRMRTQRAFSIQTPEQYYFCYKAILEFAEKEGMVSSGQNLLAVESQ
The assay can be described thus: Time-dependent irreversible inhibition of N-terminal His-tagged MEG2 (277 to 583 residues) (unknown origin) expressed in Escherichia coli BL21 (DE3) cells preincubated with enzyme followed by p-nitrophenyl phosphate substrate addition.

In assay [8] the target is T6, Protein phosphatase 1A (Homo sapiens) (UniProt P35813).
T6 sequence (whole entry): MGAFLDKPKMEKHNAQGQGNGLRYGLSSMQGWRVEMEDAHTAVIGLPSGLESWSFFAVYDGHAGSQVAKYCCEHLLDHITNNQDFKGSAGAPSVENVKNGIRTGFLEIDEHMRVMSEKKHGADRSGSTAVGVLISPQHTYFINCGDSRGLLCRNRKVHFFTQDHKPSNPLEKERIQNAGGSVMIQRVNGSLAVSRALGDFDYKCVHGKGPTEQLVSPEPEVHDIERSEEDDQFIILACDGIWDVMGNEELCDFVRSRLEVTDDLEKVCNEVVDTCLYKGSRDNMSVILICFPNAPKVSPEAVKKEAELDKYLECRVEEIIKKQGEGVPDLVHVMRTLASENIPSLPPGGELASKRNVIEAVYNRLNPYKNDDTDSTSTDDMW
In words: Time-dependent irreversible inhibition of N-terminal His-tagged PPM1A (unknown origin) expressed in Escherichia coli BL21 (DE3) cells at 80 uM preincubated with enzyme followed by p-nitrophenyl phosphate substrate addition.

For assay [9], the target named is T3, Tyrosine-protein phosphatase non-receptor type 5 (Homo sapiens). The description is as §1.
For assay [10], the target named is T7, Tyrosine-protein phosphatase non-receptor type 1 (Homo sapiens) (UniProt P18031).
T7 sequence (whole entry): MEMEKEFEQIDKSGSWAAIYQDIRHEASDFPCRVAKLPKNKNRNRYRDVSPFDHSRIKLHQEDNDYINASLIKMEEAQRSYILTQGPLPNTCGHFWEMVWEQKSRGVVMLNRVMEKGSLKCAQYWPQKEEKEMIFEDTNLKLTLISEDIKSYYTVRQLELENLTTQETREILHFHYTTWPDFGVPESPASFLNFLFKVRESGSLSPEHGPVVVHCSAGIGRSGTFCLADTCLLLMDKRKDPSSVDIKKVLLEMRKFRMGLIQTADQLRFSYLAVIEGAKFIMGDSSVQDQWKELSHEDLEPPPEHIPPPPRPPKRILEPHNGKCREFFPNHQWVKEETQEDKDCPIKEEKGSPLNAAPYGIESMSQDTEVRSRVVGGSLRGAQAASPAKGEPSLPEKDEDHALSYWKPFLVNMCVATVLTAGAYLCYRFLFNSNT
The assay can be described thus: Time-dependent irreversible inhibition of N-terminal His-tagged PTP1B (unknown origin) expressed in Escherichia coli BL21 (DE3) cells preincubated with enzyme followed by p-nitrophenyl phosphate substrate addition.

In assay [11] the target is T8, Tyrosine-protein phosphatase non-receptor type 22 (Homo sapiens) (UniProt Q9Y2R2).
T8 sequence (whole entry): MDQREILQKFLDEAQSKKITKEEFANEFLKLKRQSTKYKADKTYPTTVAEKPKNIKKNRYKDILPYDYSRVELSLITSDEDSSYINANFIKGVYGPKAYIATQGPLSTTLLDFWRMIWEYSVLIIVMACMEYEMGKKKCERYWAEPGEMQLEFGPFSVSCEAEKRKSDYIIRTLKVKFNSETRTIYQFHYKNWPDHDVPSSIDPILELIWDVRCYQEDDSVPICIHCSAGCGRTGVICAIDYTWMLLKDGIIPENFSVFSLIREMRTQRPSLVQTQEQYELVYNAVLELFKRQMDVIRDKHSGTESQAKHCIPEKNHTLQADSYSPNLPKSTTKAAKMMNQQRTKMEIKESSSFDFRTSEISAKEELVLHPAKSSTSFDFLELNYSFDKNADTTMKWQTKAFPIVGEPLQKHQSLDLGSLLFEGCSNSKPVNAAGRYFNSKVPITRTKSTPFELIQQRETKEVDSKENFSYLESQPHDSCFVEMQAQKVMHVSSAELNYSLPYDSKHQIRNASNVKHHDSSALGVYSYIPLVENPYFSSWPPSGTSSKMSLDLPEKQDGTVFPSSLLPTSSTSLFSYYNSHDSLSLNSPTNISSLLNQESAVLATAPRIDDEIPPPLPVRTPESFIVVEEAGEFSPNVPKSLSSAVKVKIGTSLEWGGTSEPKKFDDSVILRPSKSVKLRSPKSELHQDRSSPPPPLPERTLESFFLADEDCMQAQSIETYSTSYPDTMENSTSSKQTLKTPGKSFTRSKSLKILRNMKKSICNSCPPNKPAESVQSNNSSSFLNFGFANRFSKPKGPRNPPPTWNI
In words: Time-dependent irreversible inhibition of N-terminal His-tagged LYP (1 to 294 residues) (unknown origin) expressed in Escherichia coli BL21 (DE3) cells preincubated with enzyme followed by p-nitrophenyl phosphate substrate addition.

With `Cc1cc2cc(OCC(=O)O)ccc2n1-c1ccc(Cl)cc1`, the pIC50 in assay [1] is under 3.52.

Consider `Cc1ccc([N+](=O)[O-])cc1-c1ccc(/C=c2\sc3nc4ccccc4n3c2=O)o1`, for which, in [1], the pIC50 was under 3.52.

As for `O=C(O)c1cccc(/C=c2/sc3nc4ccccc4n3c2=O)c1`, the pIC50 in assay [1] was under 3.52.

Compound `O=C(O)c1ccc(N2C(=O)c3ccc(Br)cc3C2=O)cc1O` had a pIC50 in assay [1] of 3.56.

In [1], `O=C(CSc1nc2cc(Cl)ccc2o1)Nc1ccc(C(=O)O)cc1` showed a pIC50 of under 3.52.

As to `O=C(O)c1cc2ccoc2cc(C(=O)O)c1=O`, in assay [1], the pIC50 is under 3.52.

In assay [1], `COc1cc(/C=c2/sc3nc4ccccc4n3c2=O)cc(Cl)c1OCc1cccc(C(=O)O)c1` showed a pIC50 of under 3.52.

As for `Cc1cc(/C=c2/sc3nc4ccccc4n3c2=O)c(C)n1-c1cccc(C(=O)O)c1`, the TDI entry in assay [2], in assay [3], in [4] and in [8] was “Active” throughout. Also, the K in the assay with Bacteria worked out at 0.0486 min⁻¹; in [6], 0.0439 min⁻¹; in assay [7], 0.0463 min⁻¹; in [10], 0.0859 min⁻¹; in [11], 0.0272 min⁻¹. This compound had a negative-log Ki (pKi) in assay [5] of 4.67. The Kinact in [6] came to 0.068 s⁻¹. The negative logarithm of the IC50 (pIC50) in assay [1] is 5.08. In [9], the inhibition result was “Dose-dependent effect”.

A word on the pIC50: it is the IC50 on a negative log10 scale, so that one unit is a factor of ten. One may read the pKi as −log10 of the Ki, conventionally taken in molar units. A lower pKi goes with a large Ki.

The record behind these values is ChEMBL document CHEMBL4431366, “Identification of a benzo imidazole thiazole derivative as the specific irreversible inhibitor of protein tyrosine phosphatase” (Bioorg Med Chem Lett, 2016).
